For test [1], the target named is T1, ACAT 2 (Acyl CoA-Cholesterol Acyltransferase 2) (Rattus norvegicus, UniProt Q7TQM4).
T1 construct: Briefly hepatic microsomes were prepared from the Wistar rats; from tissue; host or cells: liver (hepatic microsomes) of Wistar rats
T1 sequence (Q7TQM4 1-524): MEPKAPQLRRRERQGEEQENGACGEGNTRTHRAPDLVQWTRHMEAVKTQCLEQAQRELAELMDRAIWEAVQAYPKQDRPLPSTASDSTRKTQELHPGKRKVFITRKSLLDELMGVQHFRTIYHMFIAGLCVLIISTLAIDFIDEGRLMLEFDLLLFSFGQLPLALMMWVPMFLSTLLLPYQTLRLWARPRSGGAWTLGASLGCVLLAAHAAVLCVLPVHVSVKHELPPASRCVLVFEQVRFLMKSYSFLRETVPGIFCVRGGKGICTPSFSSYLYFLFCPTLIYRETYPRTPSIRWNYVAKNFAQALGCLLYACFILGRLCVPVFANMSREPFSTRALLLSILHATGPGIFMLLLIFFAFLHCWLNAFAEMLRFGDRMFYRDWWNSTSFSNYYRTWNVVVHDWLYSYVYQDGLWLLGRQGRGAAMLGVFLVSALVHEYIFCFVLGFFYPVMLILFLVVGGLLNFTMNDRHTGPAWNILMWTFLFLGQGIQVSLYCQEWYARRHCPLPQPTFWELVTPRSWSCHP
As to the kind of experiment: In-vitro determination of inhibition of ACAT 2 (hepatic microsomes, [14C]-Palmitoyl CoA). It counts as biochemical, Wistar rats. As for the experimental part:
II. In-vitro Determination of Inhibition of ACAT 2 (Acyl CoA-Cholesterol Acyltransferase 2)
The in-vitro determination of the inhibition of the enzyme ACAT 2 by the compounds of the invention is carried out in principle as described in the publication of Largis EE, Wang CH, DeVries VG and Schaffer SA (1989), “A Novel inhibitor of ACAT-catalyzed cholesterol esterification and cholesterol absorption”, J. Lipid Res. 30, 681-689, (1989), whereby hepatic microsomes are used. The radio-substrate used is [^14C]-Palmitoyl CoA. The respective parts of the description are hereby incorporated by reference and forms part of the present disclosure.
Briefly hepatic microsomes were prepared from the Wistar rats. Enzyme inhibition experiments were performed in presence of 18 μM [^14C]-Palmitoyl CoA as substrate. The vehicle used was 1% DMSO. Compounds to be tested were present at various concentrations and the incubation buffer used was 0.2 M Phosphate buffer, pH 7.4 at 25° C. After a 15 minutes preincubation period at 37° C. an incubation period of 10 minutes at 37° C. followed. Quantification of [^14C]Cholesterol ester was done by column chromatography.

Test [2] addresses T2, ACAT 1 (Acyl CoA-Cholesterol Acyltransferase 1) (Homo sapiens, UniProt P35610).
T2 construct: Cells were collected, homogenized and microsomal membranes prepared; endogenous in cells; host or cells: U937 human monocyte cell line differentiated to macrophages with PMA; microsomal membranes
T2 sequence (P35610 1-550): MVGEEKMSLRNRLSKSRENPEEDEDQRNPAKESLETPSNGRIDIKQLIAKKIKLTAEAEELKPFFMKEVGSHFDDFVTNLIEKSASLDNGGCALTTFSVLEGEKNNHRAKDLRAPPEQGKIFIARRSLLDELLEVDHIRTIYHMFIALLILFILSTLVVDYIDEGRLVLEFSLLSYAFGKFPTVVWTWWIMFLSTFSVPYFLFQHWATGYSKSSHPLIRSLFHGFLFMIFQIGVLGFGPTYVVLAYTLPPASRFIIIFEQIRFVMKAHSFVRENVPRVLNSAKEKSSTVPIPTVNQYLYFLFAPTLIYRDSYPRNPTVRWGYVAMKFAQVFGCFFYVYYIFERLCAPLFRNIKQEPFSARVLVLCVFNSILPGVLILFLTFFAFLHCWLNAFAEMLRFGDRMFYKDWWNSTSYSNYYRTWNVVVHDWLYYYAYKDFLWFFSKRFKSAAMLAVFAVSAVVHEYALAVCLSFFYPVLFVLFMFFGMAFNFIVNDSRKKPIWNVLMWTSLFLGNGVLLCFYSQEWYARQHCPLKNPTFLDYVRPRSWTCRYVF
Kind of test: In-vitro determination of inhibition of ACAT 1 (microsomal membranes of U937 cells differentiated to macrophages, [14C]-Palmitoyl CoA). It counts as biochemical. The following applies: for pIC50: U937 macrophage microsomes; for inhibition at 30 µM: 3 × 10^−5 M; for inhibition at 30 µM / inhibition at 3 µM / inhibition at 100 µM / inhibition at 10 µM / inhibition at 1 µM: read-out: ACAT 1 Inhibition (%) at various concentration of example; for inhibition at 3 µM: 3 × 10^−6 M; for inhibition at 100 µM: 10^−4 M; for inhibition at 10 µM: 10^−5 M; for inhibition at 1 µM: 10^−6 M. As for the experimental part:
I. In-vitro Determination of Inhibition of ACAT 1 (Acyl CoA-Cholesterol Acyltransferase 1)
The in-vitro determination of the inhibition of the enzyme ACAT 1 by the compounds of the invention is carried out in principle as described:
Human histiocytic monocyte cell line, U937 was differentiated to macrophages with Phorbol 12-myristate 13-acetate at a final concentration of 30 ng/mL for 72 hr. Cells were collected, homogenized and microsomal membranes prepared. Enzyme inhibition experiments were performed in the presence of 20 μM [^14]-Palmitoyl CoA as substrate. The vehicle used was 1% DMSO. Compounds to be tested were present at various concentrations and the incubation buffer used was 0.2M KH2PO4, 1 mM EDTA, 0.15% BSA, pH 7.4. After a 15 minutes preincubation period at 37° C. an incubation period of 1 hour at 37° C. followed. Quantification of [^14C]Cholesterol ester was done by column chromatography.

Test [3] has as its target T1, ACAT 2 (Acyl CoA-Cholesterol Acyltransferase 2). To be noted: reported value; read-out: ACAT 2 reported IC50 of reference compound; cited from earlier work.
The mark [4] stands for this setting: second ACAT 2 table, value marked * estimated from 2 different experiments.
Setting [5] is: 3 × 10^−6 M, first ACAT 2 table, read-out: ACAT 2 Inhibition (%) at various concentration of example.
[6] abbreviates: 3 × 10^−6 M, second ACAT 2 table, column 4, read-out: ACAT 2 Inhibition (%) at various concentration of example.
[7] abbreviates: 3 × 10^−7 M, first ACAT 2 table, read-out: ACAT 2 Inhibition (%) at various concentration of example.
Where [8] appears, read: 10^−5 M, first ACAT 2 table, read-out: ACAT 2 Inhibition (%) at various concentration of example.
Where [9] appears, read: 10^−5 M, second ACAT 2 table, column 3, read-out: ACAT 2 Inhibition (%) at various concentration of example.
Where [10] appears, read: 10^−6 M, first ACAT 2 table, read-out: ACAT 2 Inhibition (%) at various concentration of example.

pIC50: −log10 of the molar value. Where two headings read alike, the source gives them in different places. Where only a bound is given, the exact number is not on record here.

One may read the pIC50 as −log10 of the IC50, conventionally taken in molar units. As to `C[C@@H]1[C@@H](c2ccccc2)C(C(=O)NN2CCCCC2)=NN1c1ccc(Cl)cc1Cl.Cl` (racemic) [Example 2, 1-(2,4-Dichloro-phenyl)-5-methyl-4-phenyl-4,5-dihydro-1H-pyrazole-3-carboxylic acid piperidin-1-ylamide; Hydrochloride], the “ACAT 2 Inhibition (%) at various concentration of example” value is recorded as 96% in test [1] (3 × 10^−5 M, second ACAT 2 table); 70% in test [1] (3 × 10^−6 M, first ACAT 2 table); 17% in test [1] (3 × 10^−7 M, first ACAT 2 table); 100% in test [1] (10^−4 M, second ACAT 2 table); 90% in test [1] (10^−5 M, first ACAT 2 table); 39% in test [1] (10^−6 M, first ACAT 2 table). Moreover, the “ACAT 2 Inhibition (%) at various concentration of example” value in test [1] (10^−7 M, first ACAT 2 table) was found to be 4%. This molecule also gave a pIC50 in test [1] (first ACAT 2 table) of 5.85.
For the molecule `CC[C@H](C)C(=O)O[C@H]1C[C@@H](C)C=C2C=C[C@H](C)[C@H](CC[C@@H]3C[C@@H](O)CC(=O)O3)[C@H]21` [Lovastatin, reference compound], the pIC50 in test [2] was 5.02; in test [1] (first ACAT 2 table) it was 4.64; in test [1] (setting [4]), 4.90; in test [3], 4.54.
Consider `CC1C(c2ccccc2)C(C(=O)O)=NN1c1ccc(Cl)cc1Cl` (stereo not shown) [Example 3, 1-(2,4-Dichloro-phenyl)-5-methyl-4-phenyl-4,5-dihydro-1H-pyrazole-3-carboxylic acid], for which the inhibition at 30 µM came out at 74% in test [2] and 92% in test [1] (3 × 10^−5 M, first ACAT 2 table, read-out: ACAT 2 Inhibition (%) at various concentration of example). The inhibition at 3 µM in test [2] worked out at 50%; in test [1] (setting [5]), 75%; in test [1] (setting [6]) it was 71%; in test [1] (3 × 10^−6 M, second ACAT 2 table, repeated head, column 6, read-out: ACAT 2 Inhibition (%) at various concentration of example), 40%. Moreover, the inhibition at 100 µM in test [2] is 86%. The inhibition at 10 µM in test [2] was 64%; in test [1] (setting [8]) it was 88%; in test [1] (setting [9]) it was 86%; in test [1] (10^−5 M, second ACAT 2 table, repeated head, column 5, read-out: ACAT 2 Inhibition (%) at various concentration of example) it was 65%. Also, the inhibition at 1 µM in test [2] was determined as 17%; in test [1] (setting [10]), 56%. Further, the pIC50 in test [2] was 5.32; in test [1] (first ACAT 2 table), 6.09; in test [1] (setting [4]), 5.70. For the same molecule, the inhibition at 0.3 µM in test [1] (setting [7]) was 29%.
On to `C[C@@H]1[C@@H](c2ccccc2)C(C(=O)NN2CCCCC2)=NN1c1ccc(Cl)cc1Cl` (racemic) [Example 1, 1-(2,4-Dichlorophenyl)-5-methyl-4-phenyl-4,5-dihydro-1H-pyrazole-3-carboxylic acid piperidin-1-ylamide], for which the inhibition at 30 µM in test [2] was found to be 72%; in test [1] (3 × 10^−5 M, second ACAT 2 table, read-out: ACAT 2 Inhibition (%) at various concentration of example), 97%. Further, the inhibition at 3 µM is 38% in test [2], 70% in test [1] (setting [5]) and 74% in test [1] (setting [6]). Moreover, the inhibition at 100 µM in test [2] amounted to 55%; in test [1] (10^−4 M, second ACAT 2 table, read-out: ACAT 2 Inhibition (%) at various concentration of example), 101%. In addition, the inhibition at 10 µM came to 65% in test [2], 94% in test [1] (setting [8]) and 93% in test [1] (setting [9]). Also, the values for the inhibition at 1 µM in test [2] and in test [1] (setting [10]) were 14% and 44%, respectively. Further, the results for the pIC50 in test [2], in test [1] (first ACAT 2 table) and in test [1] (setting [4]) were 5.02, 5.89 and > 5.52, respectively. In addition, the inhibition at 0.3 µM in test [1] (setting [7]) was found to be 19%. For the same molecule, the inhibition at 0.1 µM in test [1] (10^−7 M, first ACAT 2 table, read-out: ACAT 2 Inhibition (%) at various concentration of example) was -3%.

Values taken from patent publication US20100099712A1, “SUBSTITUTED PYRAZOLINE COMPOUNDS WITH ACAT INHIBITION ACTIVITY” (LABORATORIOS DEL DR. ESTEVE, S.A., priority 2007, published 2010).
